Literature values, collected in US20250268832A1, “Pretomanid Compositions” (The Global Alliance for TB Drug Development, Inc., priority 2019, published 2025).

Columns and labels:
[1] = poorly soluble
[2] = system: Mycobacterium tuberculosis; details: background statement
[3] = system: drug-resistant clinical isolates; details: background statement

O=[N+]([O-])c1cn2c(n1)OC[C@@H](OCc1ccc(OC(F)(F)F)cc1)C2 [Pretomanid, (65)-2-nitro-6-{[4-(trifluoromethoxy)benzyl]oxy}-6,7,-dihydro-5H-imidazol[2.1b][1.3]oxazine]
Biopharmaceutics Classification System (BCS) class [1]: Class II/IV
activity in mice [2]: potent bactericidal and sterilizing agent
activity in vitro against drug-resistant clinical isolates [3]: activity in vitro against all tested drug-resistant clinical isolates
